Data: US6663862B1, “Reagents for detection and purification of antibody fragments” (Duke University, priority 1999, dated 2003)
Where a chain is given by its changes, count along the chain named. Marks after values point to notes of the source that are not given here.

Tested on: Fc fragment of human IgG
Test: Binding of B1 mutants to human IgG Fc fragment (acrylodan fluorescence titration; competition assay for weak binders)
Settings: for DDG = −RTIn (Kd wild type/Kd mutant): T = 298K, relative to Q32C wild-type construct; for fold increase in Kd: hFc binding, relative to wild-type (Q32C) B1; for Kd: hFc, Q32C background, 20 mM KPO4 (pH 6.0), 25° C., direct titration, or competition with labeled wild-type B1-hFc complex for weak binders
Description: Fluorophore coupling and iodoacetamide blocking. All of the above mutations were constructed into the Q32C background to allow site-specific covalent coupling with acrylodan for fluorescent binding assays as described by Sloan, D. J. and Hellinca, H. W. (1998) Prot. Eng. 11:819-823. In competitive binding experiments between fluorescently labeled wild-type B1 and unlabeled mutants, the free thiol in the mutant protein was blocked by reaction with iodoacetamide.
Binding of B1 mutants to human IgG Fc fragment. The binding constants for each of the alanine mutants were measured as an increase in fluorescence by direct titration of Fc fragment of human IgG (ICN Biomedicals, Costa Mesa, Calif.) into a solution containing 250nM acrylodan-conjugated B1 domain mutant in 20 mM KPO4 (pH 6.0) at 25° C. (excitation 392 nm; emission 500 nm; slit widths of 4 and 16 nm respectively). After each addition of protein, the solution was allowed to equilibrate for 30 seconds before the final fluorescence value was recorded.
Each titration comprised 20 points and was performed in triplicate. The data were fit to a binding isotherm that described a single binding site and takes into account all of the species present (Segel, I. H. (1975) Enzyme Kinetics, John Wiley & Sons, New York, N.Y.): [formula]
where F is the measured fluorescence with FO and Fmax representing the initial and final values, respectively. [B1]t and [hFc]t are the concentrations of B1 and hFc respectively, and the Kd is the disassociation constant. This equation is referred to herein as “Equation 1”.
The binding constants of weak binders (greater than 50-fold increases in Kd) were measured in a competition assay with a pre-formed complex (250 nM) of wild type Q32C construct conjugated to acrylodan and hFc. Binding constants were determined by measuring the decrease in fluorescence of the complex by the addition of iodoacetamide blocked mutant B1 domains. From these competition binding curves the Kd for each of the mutant B1 domains was calculated from the binding isotherm (Fierke, C. A. et al. (1991) Biochemistry 30:11054-11063): [formula]
where F is the measured fluorescence with Fo and Ff representing the initial and final values respectively. [B1wt] and [B1mut] are the concentrations of B1 wild type and mutant respectively, and the Kd is the disassociation constant of the mutant or wild type. This Equation is referred to herein as “Equation 2”.
Binding studies. The interaction of the mutant B1 domain with the hFc was measured using a fluorescence method described by Sloan, D. J. and Hellinga, H. W. (1998) Prot. Eng. 11:819-823, which relies on the attachment of an environmentally sensitive fluorophore placed at the rim of the binding site in a location such that its fluorescence changes upon formation of the complex by virtue of alterations in conformational degrees of freedom and solvent accessibility, without adversely affecting the binding constant. Binding constants for hFc were determined in a direct titration experiment in which purified hFc was added to a solution of a Q32C B1 mutant to which the fluorophore acrylodan was covalently coupled at position 32C (FIG. 2A). The binding constants for all the B1 mutants were determined in the Q32C background (Table 4).
This approach was used to avoid having to use large quantities of pure hFc.

Substance | DDG = −RTIn (Kd wild type/Kd mutant) | fold increase in Kd | Kd
6: B1 domain of protein G, N35A mutant in Q32C background [Example 6] | 2.4 kcal/mol | 50 fold | 13 µM
4: B1 domain of protein G, K28A mutant in Q32C background [Example 4] | 1.3 kcal/mol |  | 2 µM
1: B1 domain of protein G with Q32C mutation and His tag; the wild-type construct relative to which all measurements are made [Example 1, reference compound] | 0 kcal/mol |  | 0.24 µM
10: B1 domain of protein G, T44/Y45A mutant in Q32C background [Example 10] | 2.0 kcal/mol |  | 6.5 µM
5: B1 domain of protein G, K31A mutant in Q32C background [Example 5] | 3.5 kcal/mol | 350 fold | 85 µM
3: B1 domain of protein G, E27A mutant in Q32C background [Example 3] | >4.9^f kcal/mole | > 4000 fold | > 1000 µM
7: B1 domain of protein G, D40A mutant in Q32C background [Example 7] | 0.3 kcal/mol |  | 0.38 µM
2: B1 domain of protein G, T25A mutant in Q32C background [Example 2] | 0.24 kcal/mol |  | 0.36 µM
8: B1 domain of protein G, E42A mutant in Q32C background [Example 8] | 0.4 kcal/mol |  | 0.46 µM
9: B1 domain of protein G, W43A mutant in Q32C background [Example 9] | 3.8 kcal/mol | 580 fold | 140 µM
